This is an account of results in patent US20190152957A1, “PYRIDIN-3-YL ACETIC ACID DERIVATIVES AS INHIBITORS OF HUMAN IMMUNODEFICIENCY VIRUS REPLICATION” (ViiV HEALTHCARE UK (NO.5) LIMITED, priority 2016, published 2019).

Molecules are shown by their SMILES. Where only a bound is given, the exact number is not on record here.

The first test concerns recombinant NL-RLuc virus (HIV NL4-3 with Renilla Luciferase gene) in MT-2 cells. Kind of test: Inhibition of HIV replication (NL-RLuc virus, luciferase readout in MT-2 cells). The test is classed as cell-based. To be noted: MT2, 120 h, read-out: Activity.
In the case of `Cc1nc(C)c([C@H](OC(C)(C)C)C(=O)O)c(N2CCC(C)(C)CC2)c1-c1ccc2c(c1)CCN(Cc1ccc(Cl)nc1Cl)C2` [Compound 32, (S)-2-(tert-butoxy)-2-(5-(2-((2,6-dichloropyridin-3-yl)methyl)-1,2,3,4-tetrahydroisoquinolin-6-yl)-4-(4,4-dimethylpiperidin-1-yl)-2,6-dimethylpyridin-3-yl)acetic acid], the EC50 is under 0.1 µM.

Turning to `Cc1cc(CN2CCc3cc(-c4c(C)nc(C)c([C@H](OC(C)(C)C)C(=O)O)c4N4CCC(C)(C)CC4)ccc3C2)n(C)n1` [Compound 16, (S)-2-(tert-butoxy)-2-(5-(2-((1,3-dimethyl-1H-pyrazol-5-yl)methyl)-1,2,3,4-tetrahydroisoquinolin-6-yl)-4-(4,4-dimethylpiperidin-1-yl)-2,6-dimethylpyridin-3-yl)acetic acid], the EC50 was under 0.1 µM. As to `Cc1nc[nH]c1CN1CCc2cc(-c3c(C)nc(C)c([C@H](OC(C)(C)C)C(=O)O)c3N3CCC(C)(C)CC3)ccc2C1` [Compound 39, (S)-2-(tert-butoxy)-2-(4-(4,4-dimethylpiperidin-1-yl)-2,6-dimethyl-5-(2-((4-methyl-1H-imidazol-5-yl)methyl)-1,2,3,4-tetrahydroisoquinolin-6-yl)pyridin-3-yl)acetic acid], the EC50 was in the range of 0.1 to 1 µM. Regarding `Cc1cccc(-n2cc(CN3CCc4cc(-c5c(C)nc(C)c([C@H](OC(C)(C)C)C(=O)O)c5N5CCC(C)(C)CC5)ccc4C3)cn2)c1` [Compound 41, (S)-2-(tert-butoxy)-2-(4-(4,4-dimethylpiperidin-1-yl)-2,6-dimethyl-5-(2-((1-(m-tolyl)-1H-pyrazol-4-yl)methyl)-1,2,3,4-tetrahydroisoquinolin-6-yl)pyridin-3-yl)acetic acid], the EC50 is under 0.1 µM. For the molecule `Cc1nc(C)c([C@H](OC(C)(C)C)C(=O)O)c(N2CCC(C)(C)CC2)c1-c1ccc2c(c1)CCN(Cc1ccn[nH]1)C2` [Compound 26, (S)-2-(5-(2-((1H-pyrazol-5-yl)methyl)-1,2,3,4-tetrahydroisoquinolin-6-yl)-4-(4,4-dimethylpiperidin-1-yl)-2,6-dimethylpyridin-3-yl)-2-(tert-butoxy)acetic acid], the EC50 is under 0.1 µM. For the molecule `COc1ccc(CN2CCc3cc(-c4c(C)nc(C)c([C@H](OC(C)(C)C)C(=O)O)c4N4CCC(C)(C)CC4)ccc3C2)c(OC)n1` [Compound 49, (S)-2-(tert-butoxy)-2-(5-(2-((2,6-dimethoxypyridin-3-yl)methyl)-1,2,3,4-tetrahydroisoquinolin-6-yl)-4-(4,4-dimethylpiperidin-1-yl)-2,6-dimethylpyridin-3-yl)acetic acid], the EC50 is under 0.1 µM.

The test is the same for the next values; noted with them: MT2, 120 h, read-out: EC50 μM.
With `Cc1nc[nH]c1CN1CCc2cc(-c3c(C)nc(C)c([C@H](OC(C)(C)C)C(=O)O)c3N3CCC(C)(C)CC3)ccc2C1` [Compound 39, (S)-2-(tert-butoxy)-2-(4-(4,4-dimethylpiperidin-1-yl)-2,6-dimethyl-5-(2-((4-methyl-1H-imidazol-5-yl)methyl)-1,2,3,4-tetrahydroisoquinolin-6-yl)pyridin-3-yl)acetic acid], the EC50 is 0.231 µM.
